SMILES strings stand for the structures.

Experimental findings from patent publication US9359196B2, “Antiproliferative compositions comprising curcumin analogs and methods of producing and using same” (The Board of Regents of the University of Oklahoma, priority 2009, dated 2016) are described below.

For data set [1], the system named is PANC-1 (pancreatic cancer) cells. Briefly: Cell proliferation study in PANC-1 cells. It is filed as cell-based. As for the experimental part:
(§1) Cell Culture and drug treatment: Human lung adenocarcinoma cell line NCI-H441 (ATCC Number: HTB-174) was obtained from the American Type Culture Collection (Manassas, Va.). H441 cells were maintained at 37° C. with 5% CO2 in McCoy's 5A Medium (Invitrogen, Carlsbad, Calif.) supplemented with 5% heat-inactivated fetal bovine serum (FBS). All media contained gentamicin at 50 μg/ml (GIBCO Laboratories, Grand Island, N.Y.). Other cells lines (PANC-1, MiaPaCa-2 and PC-3) were also similarly maintained, except that the cell culture medium was RPMI 1640 instead of McCoy's.
(§2) To evaluate the anti-proliferative activity of synthesized bis(2-fluorobenzylidene)-4-piperidone and its derivatives, the cells were seeded in 96-well flat-bottom tissue culture plates at a density of 10×10^3 cells per well. The cells were allowed to attach and grow overnight. The test compounds were solubilized in dimethyl sulfoxide (DMSO), filtered through 0.2 μm nylon filter and added to cells at 1, 10, 25 and 100 μM concentrations in culture medium supplemented with 5% FBS. […]
(§3) Cell Proliferation: The total number of cells after the treatment period was estimated by the hexosaminidase assay. […] The absorbance was measured at 405 nm. […] The data were analyzed as percent of control, where the control wells were treated with equivalent amounts of DMSO alone, and the analyzed data was presented as average±standard error of mean. […]

For data set [2], the system named is colon (HCT-116) cancer cells. Briefly: Proliferation of colon cancer HCT-116 cells. It is filed as cell-based.
In data set [3] the test system is caspase-3/7 activation in H441 cells. As to the kind of experiment: Caspase-3 immunoblotting and Apo-One caspase-3/7 assay in H441 cells. Type of data set: cell-based, human. (In general: In western blotting, separated proteins are transferred to a membrane and probed.)
The nature of data set [4]: Octanol-water partition coefficient (pre-formulation). Type of data set: physicochemical. From the text:
The pre-formulation studies on CLEFMA depicted it as a highly hydrophobic drug with octanol-water partition coefficient of 5.66. It was hypothesized that liposomes might serve as a vehicle for CLEFMA preparation meant for parenteral administration. Parenteral liposome formulations of lipophilic drugs are challenging. Incorporation of a lipid-partitioning drug in liposomes may produce structurally instable liposomes, resulting in burst-release of drug, rapid clearance from the body, and/or overall poor efficacy. The entrapment of cyclodextrin (CD)-based inclusion complexes (IC) inside the liposomes can be a reliable and effective method of encapsulation of hydrophobic drugs. This strategy was first reported by Gregoriades [McCormack et al., 1994], and has recently been used for the encapsulation of isotretinoin [Kaur et al., 2010].

Data set [5] concerns CCL-151 normal lung fibroblasts. Briefly: Reactive oxygen species assay (DCFH-DA) in CCL-151 normal lung fibroblasts. Type of data set: cell-based. Here is the method: Reactive oxygen species (ROS) assay: The CLEFMA-induced generation of ROS in H441 and CCL-151 cells was measured using the OxiSelect assay kit (Cell Biolabs, Inc., San Diego, Calif.). Briefly, the cells were cultured in 96-well plates, and the cell-permeable fluorogenic probe 2′,7′-dichlorodihydrofluorescin diacetate (DCFH-DA) was added to the wells and the plate was incubated for 30-60 min. The wells were washed thrice with PBS and treated with CLEFMA in culture medium for 24 and 48 h. After the incubation period, the medium was removed and the cells were gently washed 2-3 times with PBS, and the fluorescence, indicating ROS activity, was measured at 480 nm/530 nm (excitation/emission wavelengths) using the Cytoflour 2300 (Millipore, Billerica, Mass.).

Data set [6] concerns H441 cells. As to the kind of experiment: GSH/GSSG assay in H441 cells. The note with it: 12 and 24 h. Type of data set: cell-based, human. As for the experimental part: Glutathione-to-glutathione disulfide (GSH/GSSG) assay: In order to assess the effect of CLEFMA on cellular GSH levels, a kit from Oxford Biomedical Research (Oxford, Mich.) was used and followed a modification of the method reported elsewhere (NCL Method GTA-3, Nanotechnology Characterization Lab, Frederick, Md.). H441 were seeded in a 12-well plate (1 million cells/well) and treated with CLEFMA for 12 and 24 h. The medium was removed and the cell layer was washed twice with ice-cold PBS. After adding 100 μl of ice-cold 5% m-phosphoric acid, the cells were scraped into a microfuge tube and centrifuged at 1000×g at 4° C. for 10 min. The supernatant was removed to a fresh tube for the GSSG and GSH assays. For the GSSG determination, approximately 30 μl supernatant was mixed with 20 μl thiol scavenger and 130 μl ice-cold assay buffer, and for the GSH assay, approximately 5 μl of the supernatant was diluted in 180 μl with ice-cold assay buffer. […] The plate was read in a microplate reader at 405-414 nm at 0 and 10 min after DTNB was added. The GSH and GSSG concentrations were determined following a linear regression analysis and normalized to total protein. The ratio (GSH−2GSSG)/GSSG was calculated and expressed as the percent of untreated control cells.

The subject of data set [7] is H441 cells. Briefly: Transmission electron microscopy of treated H441 cells (autophagy). Type of data set: cell-based, human. The note with it: 24 hour treatment, 1 and 10 μM. As for the experimental part: Transmission Electron Microscopy (TEM): TEM was performed after 24 hour treatment with 1 and 10 μM of compound 1 or compound 29 (CLEFMA). The cells were fixed in 0.1M sodium cacodylate buffer containing 4% paraformaldehyde (PFA) and 2% glutaraldehyde for 4 h at room temperature. The samples were post-fixed in 1% osmium tetroxide for 1.5 h and washed with 0.1M sodium cacodylate buffer, followed by dehydration in an ethanol series of 50%, 60%, 75%, 85%, and 95% for 15 minutes each. The cells were washed twice in 100% Ethanol and passed through a series of epon-araldite (6.2 g epon+4.4 g araldite+12.4 g of dodecenyl succinic anhydride+0.8 g N,N-dimethylbenzylamine) solution in ethanol, [Matsko et al., 2005] before embedding the cells in epon-araldite resin. Finally, 100 nm sections were cut using a microtome, and the sections were placed on glow-discharged 300 mesh Copper grids. The ultrasections were stained with Sato's lead (mixture of calcinated lead citrate, lead nitrate, lead acetate and sodium citrate), and observed by a Hitachi H-7600 Transmission Electron Microscope at 2500× (Oklahoma Medical Research Foundation Imaging and core facility, Oklahoma City).

Data set [8] deals with PC-3 (prostate cancer) cells. As to the kind of experiment: Cell proliferation study in PC-3 cells. It is filed as cell-based. As for the experimental part: as §1, §2, §3

As for `O=C(O)C=CC(=O)N1CC(=Cc2ccccc2Cl)C(=O)C(=Cc2ccccc2Cl)C1` [Compound 29, 4-[3,5-Bis-(2-chlorobenzylidene)-4-oxo-piperidin-1-yl]-4-oxo-2-butenoic acid], the “potency of antiproliferative action” value in data set [1] and in data set [8] was “enhanced the potency of antiproliferative action” throughout. In data set [2], the control of proliferation entry was “equally potent in controlling proliferation”. Further, in data set [3] (H441 cell lysates), the “caspase-3 activation level (immunoblotting)” value was “no change in its activation level”. Moreover, the “cleavage-based caspase activation (Apo-One caspase-3/7 assay)” value in data set [3] (H441 cells) is listed as “no cleavage-based caspase activation was seen”. Further, the octanol-water partition coefficient in data set [4] came to 5.66. The ROS production entry in data set [5] was “did not increase ROS production in normal lung fibroblasts”. Moreover, in the data set on H441 cells [6], the GSH/GSSG ratio entry is reported as “strong dose-dependent reduction of the GSH/GSSG ratio”. Further, the “change in cellular architecture (TEM)” value with H441 cells [7] is given as “induced a substantial change in cellular architecture”.
